Assay results reported in ChEMBL document CHEMBL1909549, “Synthesis, pharmacophore modeling and in vitro activity of 10,11-dihydrodibenzo[b,f]oxepine-4-carboxamide derivatives as novel and potent antagonists of the prostaglandin EP4 receptor” (Bioorg Med Chem Lett, 2011).
Calls of active or inactive are those of the source. No cut-off for these calls is given here.

Tests used:
[1] = molecular target: T1, Prostaglandin E2 receptor EP4 subtype (Homo sapiens, UniProt P35408); test: Displacement of [3H]-PGE2 from human EP4 receptor expressed in HEK293 cells; type: cell-based
T1 sequence (P35408 whole entry): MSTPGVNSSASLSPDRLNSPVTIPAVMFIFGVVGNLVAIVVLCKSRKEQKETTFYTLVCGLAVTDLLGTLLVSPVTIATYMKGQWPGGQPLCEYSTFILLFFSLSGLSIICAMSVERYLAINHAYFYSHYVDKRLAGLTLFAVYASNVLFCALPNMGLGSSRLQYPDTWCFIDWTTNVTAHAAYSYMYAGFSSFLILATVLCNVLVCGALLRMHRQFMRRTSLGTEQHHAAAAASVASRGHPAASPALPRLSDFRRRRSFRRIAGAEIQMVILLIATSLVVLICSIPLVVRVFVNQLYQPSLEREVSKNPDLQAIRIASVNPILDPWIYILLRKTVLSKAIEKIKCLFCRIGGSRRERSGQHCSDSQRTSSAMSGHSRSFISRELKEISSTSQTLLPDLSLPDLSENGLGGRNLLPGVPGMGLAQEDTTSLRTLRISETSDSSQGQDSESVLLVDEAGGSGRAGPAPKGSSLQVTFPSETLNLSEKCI

[2] = molecular target: Prostaglandin E2 receptor EP2 subtype (Homo sapiens, UniProt P43116); test: Displacement of [3H]-PGE2 from human EP2 receptor expressed in HEK293 cells; type: cell-based
Chain of Prostaglandin E2 receptor EP2 subtype (P43116 whole entry): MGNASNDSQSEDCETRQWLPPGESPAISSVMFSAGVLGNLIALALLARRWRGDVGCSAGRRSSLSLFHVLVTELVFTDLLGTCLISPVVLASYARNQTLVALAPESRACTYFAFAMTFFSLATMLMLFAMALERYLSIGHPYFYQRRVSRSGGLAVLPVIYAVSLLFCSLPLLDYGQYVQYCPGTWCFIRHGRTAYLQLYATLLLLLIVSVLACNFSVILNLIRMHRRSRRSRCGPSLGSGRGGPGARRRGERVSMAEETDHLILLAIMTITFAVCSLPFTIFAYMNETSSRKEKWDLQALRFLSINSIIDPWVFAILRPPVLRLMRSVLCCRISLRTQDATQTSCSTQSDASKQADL

[3] = molecular target: T1, Prostaglandin E2 receptor EP4 subtype; test: Antagonist activity at human EP4 receptor expressed in HEK293 cells assessed as inhibition of PGE2-induced cAMP accumulation by bead-based proximity assay; type: functional, cell-based
[4] = molecular target: T1, Prostaglandin E2 receptor EP4 subtype; test: Agonist activity at human EP4 receptor expressed in HEK293 cells assessed as potentiation of cAMP accumulation by bead-based proximity assay in absence of PGE2; type: functional, cell-based
Cytochrome P450 1A2 = molecular target: T2, Cytochrome P450 1A2 (Homo sapiens, UniProt P05177); test: Inhibition of recombinant human CYP1A2 at 3 uM by fluorimetry; type: ADME; conditions: recombinant enzyme
T2 sequence (P05177 whole entry): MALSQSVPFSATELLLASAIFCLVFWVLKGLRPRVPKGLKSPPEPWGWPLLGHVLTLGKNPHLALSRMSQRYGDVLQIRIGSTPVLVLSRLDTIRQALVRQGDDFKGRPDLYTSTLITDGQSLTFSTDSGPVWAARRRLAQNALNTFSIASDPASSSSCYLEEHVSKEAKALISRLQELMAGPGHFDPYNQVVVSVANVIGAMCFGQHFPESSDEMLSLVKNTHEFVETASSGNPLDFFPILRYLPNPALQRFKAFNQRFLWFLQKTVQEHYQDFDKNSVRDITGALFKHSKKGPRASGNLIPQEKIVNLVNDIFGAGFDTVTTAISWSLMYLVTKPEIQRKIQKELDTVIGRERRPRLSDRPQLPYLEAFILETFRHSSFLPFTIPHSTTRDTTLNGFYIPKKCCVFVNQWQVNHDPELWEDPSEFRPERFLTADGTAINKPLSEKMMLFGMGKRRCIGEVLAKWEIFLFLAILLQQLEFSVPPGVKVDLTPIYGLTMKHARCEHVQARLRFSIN

CYP2C9 = CYP2C9 (Homo sapiens, UniProt P11712); test: Inhibition of recombinant human CYP2C9 at 3 uM by fluorimetry; type: ADME
Chain of CYP2C9 (P11712 whole entry): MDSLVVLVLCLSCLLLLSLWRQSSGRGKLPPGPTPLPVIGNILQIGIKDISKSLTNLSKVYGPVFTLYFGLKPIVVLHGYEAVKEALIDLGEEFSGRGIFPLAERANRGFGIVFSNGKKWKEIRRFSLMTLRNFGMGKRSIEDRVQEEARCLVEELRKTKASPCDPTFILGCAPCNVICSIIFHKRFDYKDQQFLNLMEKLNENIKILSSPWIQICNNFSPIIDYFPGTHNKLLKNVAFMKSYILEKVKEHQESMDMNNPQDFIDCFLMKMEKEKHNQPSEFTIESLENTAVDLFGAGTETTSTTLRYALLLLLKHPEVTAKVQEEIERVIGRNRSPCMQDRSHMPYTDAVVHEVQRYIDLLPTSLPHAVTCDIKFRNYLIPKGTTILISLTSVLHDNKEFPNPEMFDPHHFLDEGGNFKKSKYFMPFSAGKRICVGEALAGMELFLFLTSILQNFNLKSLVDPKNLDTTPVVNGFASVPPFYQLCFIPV

Cytochrome P450 2C19 = Cytochrome P450 2C19 (Homo sapiens, UniProt P33261); test: (§1) Inhibition of recombinant human CYP2C19 at 3 uM by fluorimetry; type: ADME; conditions: recombinant enzyme, 3 µM
Chain of Cytochrome P450 2C19 (P33261 whole entry): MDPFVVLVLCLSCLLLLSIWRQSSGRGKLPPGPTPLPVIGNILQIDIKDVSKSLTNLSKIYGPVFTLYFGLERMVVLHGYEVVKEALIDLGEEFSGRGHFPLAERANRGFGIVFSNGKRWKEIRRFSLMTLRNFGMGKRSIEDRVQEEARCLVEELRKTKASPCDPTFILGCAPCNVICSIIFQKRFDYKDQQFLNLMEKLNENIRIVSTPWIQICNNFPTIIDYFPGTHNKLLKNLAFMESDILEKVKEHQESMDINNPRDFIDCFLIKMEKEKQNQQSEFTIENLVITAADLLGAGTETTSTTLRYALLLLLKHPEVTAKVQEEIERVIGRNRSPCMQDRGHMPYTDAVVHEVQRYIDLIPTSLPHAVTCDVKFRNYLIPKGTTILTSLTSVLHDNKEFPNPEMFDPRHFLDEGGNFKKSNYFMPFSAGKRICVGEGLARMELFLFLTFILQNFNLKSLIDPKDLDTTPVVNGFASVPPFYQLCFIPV

Cytochrome P450 2D6 = Cytochrome P450 2D6 (Homo sapiens, UniProt P10635); test: Inhibition of recombinant human CYP2D6 at 3 uM by fluorimetry; type: ADME; conditions: recombinant enzyme
Chain of Cytochrome P450 2D6 (P10635 whole entry): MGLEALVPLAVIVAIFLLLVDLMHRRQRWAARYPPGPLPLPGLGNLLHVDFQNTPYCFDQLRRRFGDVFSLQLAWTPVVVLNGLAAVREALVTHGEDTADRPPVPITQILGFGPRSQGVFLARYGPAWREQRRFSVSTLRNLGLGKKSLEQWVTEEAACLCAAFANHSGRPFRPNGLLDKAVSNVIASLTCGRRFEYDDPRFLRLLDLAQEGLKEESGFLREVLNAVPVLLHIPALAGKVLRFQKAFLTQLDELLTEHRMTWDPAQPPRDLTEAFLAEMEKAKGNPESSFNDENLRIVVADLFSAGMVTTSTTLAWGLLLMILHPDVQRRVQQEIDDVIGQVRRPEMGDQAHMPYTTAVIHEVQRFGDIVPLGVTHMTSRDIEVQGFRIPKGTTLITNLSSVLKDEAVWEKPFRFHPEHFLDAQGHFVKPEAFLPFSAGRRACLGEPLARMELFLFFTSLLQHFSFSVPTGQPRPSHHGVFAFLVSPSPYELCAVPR

Cytochrome P450 3A4 [5] = molecular target: T3, Cytochrome P450 3A4 (Homo sapiens, UniProt P08684); test: Inhibition of recombinant human CYP3A4 using diethoxyfluorescein as substrate at 3 uM by fluorimetry; type: ADME; conditions: recombinant enzyme
T3 sequence (P08684 whole entry): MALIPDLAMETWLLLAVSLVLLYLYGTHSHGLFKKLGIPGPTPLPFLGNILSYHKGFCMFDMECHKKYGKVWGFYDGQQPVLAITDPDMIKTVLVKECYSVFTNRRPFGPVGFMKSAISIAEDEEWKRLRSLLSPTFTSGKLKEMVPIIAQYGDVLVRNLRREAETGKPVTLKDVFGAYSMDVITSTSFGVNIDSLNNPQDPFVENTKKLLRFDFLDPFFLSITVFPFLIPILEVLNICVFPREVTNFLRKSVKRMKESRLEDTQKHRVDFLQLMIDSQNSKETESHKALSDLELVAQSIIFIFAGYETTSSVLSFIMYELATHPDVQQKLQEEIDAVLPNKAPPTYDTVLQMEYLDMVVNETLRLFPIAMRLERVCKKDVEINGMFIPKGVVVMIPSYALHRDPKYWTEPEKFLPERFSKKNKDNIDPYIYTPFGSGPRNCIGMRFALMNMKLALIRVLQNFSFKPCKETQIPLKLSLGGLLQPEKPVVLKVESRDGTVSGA

Cytochrome P450 3A4 [6] = molecular target: T3, Cytochrome P450 3A4; test: Inhibition of recombinant human CYP3A4 using 7-benzyloxy-4-trifluoromethyl coumarin as substrate at 3 uM by fluorimetry; type: ADME; conditions: recombinant enzyme
CYP2C19 = CYP2C19 (Homo sapiens, UniProt P33261); test: as §1; type: ADME; conditions: recombinant human CYP2C19
Chain of CYP2C19 (P33261 whole entry): as the sequence (P33261 whole entry) above

[7] = molecular target: T1, Prostaglandin E2 receptor EP4 subtype; test: Ratio of CJ-42794 IC50 to compound IC50 for human EP4 receptor expressed in HEK293 cells; type: cell-based

SMILES	IC50 [1]	IC50 [2]	IC50 [3]	Activity [4]	inhibition (INH) (Cytochrome P450 1A2)	inhibition at 3 µM (CYP2C9)	inhibition (INH) (Cytochrome P450 2C19)	inhibition (INH) (Cytochrome P450 2D6)	inhibition (INH) (Cytochrome P450 3A4 [5])	inhibition (INH) (Cytochrome P450 3A4 [6])	inhibition at 3 µM (CYP2C19)	Ratio IC50 [7]
O=C(O)c1ccc(C2(NC(=O)c3cccc4c3Oc3ccc(C(F)(F)F)cc3CC4)CC2)cc1	0.027 µM	> 1 µM	0.034 µM	inactive	Not Active	26%	–	Not Active	Not Active	Not Active	13%	–
C[C@H](NC(=O)c1cccc2c1Oc1ccc(C(F)(F)F)cc1CC2)c1ccc(C(=O)O)cc1	0.063 µM	> 1 µM	0.042 µM	inactive	Not Active	17%	–	Not Active	Not Active	Not Active	11%	–

These reach a lower IC50 [1]. Values come first.

IC50 [1]	IC50 [2]	IC50 [3]	Activity [4]	inhibition (INH) (Cytochrome P450 1A2)	inhibition at 3 µM (CYP2C9)	inhibition (INH) (Cytochrome P450 2C19)	inhibition (INH) (Cytochrome P450 2D6)	inhibition (INH) (Cytochrome P450 3A4 [5])	inhibition (INH) (Cytochrome P450 3A4 [6])	inhibition at 3 µM (CYP2C19)	Ratio IC50 [7]	SMILES
0.01 µM	> 1 µM	0.013 µM	–	–	–	–	–	–	–	–	–	C[C@H](NC(=O)c1cc(Cl)ccc1Oc1ccc(F)cc1)c1ccc(C(=O)O)cc1
0.004 µM	> 1 µM	1 µM	inactive	Not Active	11%	Not Active	Not Active	Not Active	Not Active	–	–	O=C(O)c1ccc(C2(NC(=O)c3cccc4c3Oc3cc(C(F)(F)F)ccc3CC4)CC2)cc1
0.002 µM	> 1 µM	0.02 µM	inactive	Not Active	21%	Not Active	Not Active	Not Active	Not Active	–	5	C[C@H](NC(=O)c1cccc2c1Oc1cc(C(F)(F)F)ccc1CC2)c1ccc(C(=O)O)cc1
